Assay results reported in patent US9730944B2, “Antiviral activity of novel bicyclic heterocycles” (priority 2010, dated 2017).
Converted amounts (≈) assume the structure as drawn.

Assays:
[1] = Cytostatic/cytotoxic effect in Hela Rh cells (rhinovirus methodology, MTS); conditions: human, CC50, Hela Rh cells
hRV-39 = assay: Rhinovirus type 39 antiviral assay in Hela Rh cells, MTS readout; type: cell-based, Human rhinovirus; conditions: Human rhinovirus sp., HRV39, HeLa Rh, Hela Rh cells; read-out: hRV-39 EC50
hRV-42 = assay: Rhinovirus type 42 antiviral assay in Hela Rh cells, MTS readout; type: cell-based, Human rhinovirus; conditions: Human rhinovirus sp., HRV42, HeLa Rh, Hela Rh cells; read-out: hRV-42 EC50
hRV-9 = assay: Rhinovirus type 9 antiviral assay in Hela Rh cells, MTS readout; type: cell-based, Human rhinovirus; conditions: Human rhinovirus sp., HRV9, HeLa Rh, Hela Rh cells; read-out: hRV-9 EC50
hRV-14 = assay: Rhinovirus type 14 antiviral assay in Hela Rh cells, MTS readout; type: cell-based, Human rhinovirus; conditions: Rhinovirus B, HRV14, HeLa Rh, Hela Rh cells; read-out: hRV-14 EC50
hRV-2 = assay: Rhinovirus type 2 antiviral assay in Hela Rh cells, MTS readout; type: cell-based, Human rhinovirus; conditions: Rhinovirus A, HRV2, HeLa Rh, Hela Rh cells; read-out: hRV-2 EC50
hRV-15 = assay: Rhinovirus type 15 antiviral assay in Hela Rh cells, MTS readout; type: cell-based, Human rhinovirus; conditions: Human rhinovirus sp., HRV15, HeLa Rh, Hela Rh cells; read-out: hRV-15 EC50
hRV-41 = assay: Rhinovirus type 41 antiviral assay in Hela Rh cells, MTS readout; type: cell-based, Human rhinovirus; conditions: Human rhinovirus sp., HRV41, HeLa Rh, Hela Rh cells; read-out: hRV-41 EC50
hRV-72 = assay: Rhinovirus type 72 antiviral assay in Hela Rh cells, MTS readout; type: cell-based, Human rhinovirus; conditions: Human rhinovirus sp., HRV72, HeLa Rh, Hela Rh cells; read-out: hRV-72 EC50
hRV-63 = assay: Rhinovirus type 63 antiviral assay in Hela Rh cells, MTS readout; type: cell-based, Human rhinovirus; conditions: Human rhinovirus sp., HRV63, HeLa Rh, Hela Rh cells; read-out: hRV-63 EC50
hRV-70 = assay: Rhinovirus type 70 antiviral assay in Hela Rh cells, MTS readout; type: cell-based, Human rhinovirus; conditions: Human rhinovirus sp., HRV70, HeLa Rh, Hela Rh cells; read-out: hRV-70 EC50
hRV-29 = assay: Rhinovirus type 29 antiviral assay in Hela Rh cells, MTS readout; type: cell-based; conditions: Human rhinovirus sp., HRV29, HeLa Rh, Hela Rh cells; read-out: hRV-29 EC50
hRV-85 = assay: Rhinovirus type 85 antiviral assay in Hela Rh cells, MTS readout; type: cell-based, Human rhinovirus; conditions: Human rhinovirus sp., HRV85, HeLa Rh, Hela Rh cells; read-out: hRV-85 EC50
hRV-86 = assay: Rhinovirus type 86 antiviral assay in Hela Rh cells, MTS readout; type: cell-based, Human rhinovirus; conditions: Human rhinovirus sp., HRV86, HeLa Rh, Hela Rh cells; read-out: hRV-86 EC50
hRV-45 = assay: Rhinovirus type 45 antiviral assay in Hela Rh cells, MTS readout; type: cell-based, Human rhinovirus; conditions: Human rhinovirus sp., HRV45, HeLa Rh, Hela Rh cells; read-out: hRV-45 EC50

Structure (SMILES)	CC50 [1] [µg/mL]	EC50 (hRV-39) [µg/mL]	EC50 (hRV-42) [µg/mL]	EC50 (hRV-9) [µg/mL]	EC50 (hRV-14) [µg/mL]	EC50 (hRV-2) [µg/mL]	EC50 (hRV-15) [µg/mL]	EC50 (hRV-41) [µg/mL]	EC50 (hRV-72) [µg/mL]	EC50 (hRV-63) [µg/mL]	EC50 (hRV-70) [µg/mL]	EC50 (hRV-29) [µg/mL]	EC50 (hRV-85) [µg/mL]	EC50 (hRV-86) [µg/mL]	EC50 (hRV-45) [µg/mL]
COc1cccc(CCc2nc3c(N4CCN(C(=O)COc5ccc(Cl)cc5)CC4)nc(N)nc3s2)c1 [Example 255, 1-(4-(5-amino-2-(3-methoxyphenethyl)thiazolo[5,4-d]pyrimidin-7-yl)piperazin-1-yl)-2-(4-chlorophenoxy)ethanone]	> 50	0.5 (≈ 0.928 µM)	1.1 (≈ 2.04 µM)	0.52 (≈ 0.965 µM)	0.53 (≈ 0.983 µM)	0.65 (≈ 1.21 µM)	1.82 (≈ 3.38 µM)	20.8 (≈ 38.6 µM)	> 50	3.31 (≈ 6.14 µM)	4.02 (≈ 7.46 µM)	0.6 (≈ 1.11 µM)	2.18 (≈ 4.04 µM)	2.61 (≈ 4.84 µM)	2.34 (≈ 4.34 µM)
Nc1nc(N2CCN(C(=O)COc3ccc(Br)cc3)CC2)c2nc(-c3ccc(F)cc3)sc2n1 [Example 235, 1-(4-(5-amino-2-(4-fluorophenyl)thiazolo[5,4-d]pyrimidin-7-yl)piperazin-1-yl)-2-(4-bromophenoxy)ethanone]	> 50	< 0.02	< 0.39	< 0.02	0.04 (≈ 0.0736 µM)	< 0.02	< 0.02	< 0.39	0.65 (≈ 1.2 µM)	< 0.39	< 0.39	< 0.02	< 0.39	0.58 (≈ 1.07 µM)	< 0.39
COc1ccc(CCc2nc3c(N4CCN(C(=O)COc5ccc(Br)cc5)CC4)nc(N)nc3s2)cc1OC [Example 256, 1-(4-(5-amino-2-(3,4-dimethoxyphenethyl)thiazolo[5,4-d]pyrimidin-7-yl)piperazin-1-yl)-2-(4-bromophenoxy)ethanone]	> 50	1.8 (≈ 2.93 µM)	5.22 (≈ 8.51 µM)	4.05 (≈ 6.6 µM)	2.81 (≈ 4.58 µM)	2.07 (≈ 3.37 µM)	> 50	> 50	6.89 (≈ 11.2 µM)	32.9 (≈ 53.6 µM)	5.97 (≈ 9.73 µM)	4.06 (≈ 6.62 µM)	9.48 (≈ 15.5 µM)	4.86 (≈ 7.92 µM)	> 50
COc1ccc(OCC(=O)N2CCN(c3nc(N)nc4sc(CCc5ccc(Br)cc5)nc34)CC2)cc1 [Example 298, 1-(4-(5-amino-2-(4-bromophenethyl)thiazolo[5,4-d]pyrimidin-7-yl)piperazin-1-yl)-2-(4-methoxyphenoxy)ethanone]	> 50	0.45 (≈ 0.771 µM)	1.2 (≈ 2.06 µM)	0.55 (≈ 0.943 µM)	1.23 (≈ 2.11 µM)	0.45 (≈ 0.771 µM)	1.61 (≈ 2.76 µM)	10.4 (≈ 17.8 µM)	6.52 (≈ 11.2 µM)	3.9 (≈ 6.68 µM)	4.71 (≈ 8.07 µM)	0.89 (≈ 1.53 µM)	2.21 (≈ 3.79 µM)	4.58 (≈ 7.85 µM)	4.56 (≈ 7.81 µM)
COc1ccc(OCC(=O)N2CCN(c3nc(N)nc4sc(CCCCc5ccc(F)cc5)nc34)CC2)cc1 [Example 293, 1-(4-(5-amino-2-(4-(4-fluorophenyl)butyl)thiazolo[5,4-d]pyrimidin-7-yl)piperazin-1-yl)-2-(4-methoxyphenoxy)ethanone]	> 50	> 50	> 50	> 50	> 50	12.4 (≈ 22.5 µM)	> 50	> 50	> 50	21.2 (≈ 38.4 µM)	> 50	> 50	11.5 (≈ 20.9 µM)	> 50	35.4 (≈ 64.2 µM)
Cc1ccc(CCc2nc3c(N4CCN(C(=O)COc5ccc(Br)cc5)CC4)nc(N)nc3s2)cc1 [Example 258, 1-(4-(5-amino-2-(4-methylphenethyl)thiazolo[5,4-d]pyrimidin-7-yl)piperazin-1-yl)-2-(4-bromophenoxy)ethanone]	46.2 (≈ 81.5 µM)	13 (≈ 22.9 µM)	> 50	> 50	> 50	9.58 (≈ 16.9 µM)	> 50	> 50	> 50	34 (≈ 60 µM)	> 50	> 50	8.33 (≈ 14.7 µM)	> 50	35.4 (≈ 62.3 µM)
